Measurements published in US20060160818A1, “Ocular hypotensive agent” (priority 2003, published 2006).
Counter-ions that a name gives are not always drawn.

Test system: ocular tension
Assay: Ocular tension-reducing activity by administration to anterior chamber
Format: in vivo, rabbit
Settings: overall conclusion from Examples 1 to 4
Description: Test solutions 1 to 3 were prepared as mentioned below. […] Non-white 5 male rabbits were used. Ocular tension was measured under topically anesthetizing the corneal surface with 0.4% oxybuprocaine hydrochloride by using an air impression electronic tonometer (by Japan Alcon Company). The rabbit was fitted in a cylinder, after topically anesthetizing the corneal surface with 0.4% oxybuprocaine hydrochloride, and the test solution 10 μl was injected via cornea in anterior chamber of one eye with an injection needle (30G). To the other eye as a control eye, in the same way as mentioned above, a physiological saline was injected. Ocular tension just before and after injection of the test solution or the physiological saline was measured in accordance with the same method as mentioned above. […] Ocular tension just before and after injection of the test solution and the physiological saline was measured in accordance with the same method as mentioned in Example 1.

| Compound | ocular tension-reducing activity (summary in words) |
| --- | --- |
| O=C1[C@H]2CCCC[C@H]2C(=O)N1CCCCN1CCN(c2nsc3ccccc23)CC1 [perospirone hydrochloride hydrate] | have ocular tension-reducing activity |
| O=C(O)CC(O)(CC(=O)O)C(=O)O.O=C1[C@@H]2[C@@H]3CC[C@@H](C3)[C@@H]2C(=O)N1CCCCN1CCN(c2ncccn2)CC1 [tandospirone citrate] | have ocular tension-reducing activity |
